Among the data in patent publication US6774110B2, “Orally available peptidic thrombin inhibitors” (LG Life Sciences Ltd., priority 2001, dated 2004) are Ki values, retold here.

Where a name gives a salt, the structure may show the parent alone.

One assay has as its target T1, thrombin (Homo sapiens, UniProt P00734).
T1 construct: Thrombin used in this test was prepared from human plasma; from tissue; host or cells: human plasma
The assay is described as follows: In vitro enzyme assay for determining thrombin inhibition constants (Chromozym TH substrate). Format: biochemical. The note with it: Inhibition constant Ki, thrombin prepared from human plasma; Dixon plot; pH 7.8. On the procedure:
The activity of thrombin was measured spectrophotometrically using tosyl-Gly-Pro-Arg-p-nitroanilide acetate (Chromozym TH, Boehringer Mannheim) as a substrate. […] Each compound was dissolved in DMSO to make a 1 mM stock solution and dilutions were made thereof with assay buffer (0.1 M TrisHCl, 0.15 M NaCl, 0.1% polyethylene glycol 8000, pH 7.8). Different concentrations of inhibitor were mixed with 0.3 NIH units of thrombin in 0.8 mL of the buffer. The mixture was incubated for 10 min at room temperature before adding 0.2 mL of the substrate to a final concentration of 20 μM. […] A graph for the reciprocal value of initial velocity to the inhibitor concentration was derived from progress curves by fitting the data using a linear regression program. […]
As to `N=C(N)c1ccc(CNC(=O)[C@@H]2CCCN2C(=O)[C@H](NC(=O)Oc2ccccc2)C(c2ccccc2)c2ccccc2)cc1` [Compound 25, N-phenyloxycarbonyl-D-diphenylalanyl-L-prolyl-[(4-amidinophenyl)methyl]amide.TFA], affinity was put at a Ki of 0.15 nM.

The assay is the same for the next values; noted with them: thrombin prepared from human plasma; Dixon plot; pH 7.8; read-out: Inhibition constant Ki.
In the case of `N=C(N)c1ccc(CNC(=O)[C@@H]2CCCN2C(=O)[C@H](NS(N)(=O)=O)C(c2ccccc2)c2ccccc2)cc1` [Compound 1, N-aminosulfonyl-D-diphenylalanyl-L-prolyl-[(4-amidinophenyl)methyl]amide.TFA], the Ki was 0.018 nM.

Take `NCc1ccc(CNC(=O)[C@@H]2CCCN2C(=O)[C@H](NS(N)(=O)=O)C(c2ccccc2)c2ccccc2)cc1` [Compound 2, N-aminosulfonyl-D-diphenylalanyl-L-prolyl-[(4-aminomethylphenyl)methyl]amide.HCl]: the Ki stood at 4.2 nM.

As for `N=C(N)c1ccc(CNC(=O)[C@@H]2CCCN2C(=O)[C@@H](Cc2ccc(Cl)c(Cl)c2)NS(N)(=O)=O)cc1` [Compound 3, N-aminosulfonyl-D-3,4-dichlorophenylalanyl-L-prolyl-[(4-amidinophenyl)methyl]amide.TFA], the Ki amounted to 0.16 nM.

As to `N=C(N)c1ccc(CNC(=O)[C@@H]2CCCN2C(=O)[C@H](NS(N)(=O)=O)C(C2CCCCC2)C2CCCCC2)cc1` [Compound 4, N-aminosulfonyl-D-dicyclohexylalanyl-L-prolyl-[(4-amidinophenyl)methyl]amide.TFA], the Ki amounted to 0.029 nM.

Take `N=C(N)c1ccc(CNC(=O)[C@@H]2CCN2C(=O)[C@H](NS(N)(=O)=O)C(c2ccccc2)c2ccccc2)cc1` [Compound 5, N-aminosulfonyl-D-diphenylalanyl-L-azetidine-2-carboxyl-[(4-amidinophenyl)methyl]amide.TFA]: the Ki stood at 0.035 nM.

Consider `N=C(N)c1ccc(CNC(=O)[C@@H]2CCCN2C(=O)[C@H](NS(N)(=O)=O)C2CCCCC2)cc1` [Compound 6, N-aminosulfonyl-D-cyclohexylglycinyl-L-prolyl-[(4-amidinophenyl)methyl]amide.TFA], for which the Ki turned out to be 0.38 nM.

`N=C(N)c1ccc(CNC(=O)[C@@H]2CCCN2C(=O)[C@@H](CC2CCCCC2)NS(N)(=O)=O)cc1` [Compound 7, N-aminosulfonyl-D-cyclohexylalanyl-L-prolyl-[(4-amidinophenyl)methyl]amide.TFA]: the Ki was 0.66 nM.

Regarding `CC(C)[C@@H](NS(N)(=O)=O)C(=O)N1CCC[C@H]1C(=O)NCc1ccc(C(=N)N)cc1` [Compound 8, N-Aminosulfonyl-D-valinyl-L-prolyl-[(4-amidinophenyl)methyl]amide.TFA], the Ki was 43 nM.

`NCc1ccc(CNC(=O)[C@@H]2CCCN2C(=O)[C@H](NS(N)(=O)=O)C(c2ccccc2)c2ccccc2)cn1` [Compound 10, N-aminosulfonyl-D-diphenylalanyl-L-prolyl-(6-aminomethyl-3-picolyl)amide]: the inhibitory constant (Ki) came to 4.2 nM.

Turning to `N=C(N)c1ccc(CNC(=O)[C@@H]2CCCN2C(=O)[C@H](NS(N)(=O)=O)C(C2CCCCC2)C2CCCCC2)cn1` [Compound 11, N-aminosulfonyl-D-dicyclohexylalanyl-L-prolyl-(6-amidino-3-picolyl)amide.TFA], the Ki amounted to 0.046 nM.

Consider `N=C(N)c1ccc(CNC(=O)[C@@H]2CCCN2C(=O)[C@@H](CC2CCCCC2)NS(N)(=O)=O)cn1` [Compound 12, N-aminosulfonyl-D-cyclohexylalanyl-L-prolyl-(6-amidino-3-picolyl)amide.TFA], for which the Ki is 2.1 nM.

As to `N=C(N)c1ccc(CNC(=O)[C@@H]2CCCN2C(=O)[C@H](NS(N)(=O)=O)C(c2ccccc2)c2ccccc2)nc1` [Compound 13, N-aminosulfonyl-D-diphenylalanyl-L-prolyl-(5-amidino-2-picolyl)amide.TFA], the Ki came to 0.055 nM.

On to `N=C(N)c1ncc(CNC(=O)[C@@H]2CCCN2C(=O)[C@H](NS(N)(=O)=O)C(c2ccccc2)c2ccccc2)cn1` [Compound 14, N-aminosulfonyl-D-diphenylalanyl-L-prolyl-[(2-amidino-5-pyrimidyl)methyl]amide.TFA], for which the Ki stood at 0.023 nM.

`N=C(N)c1ccc(CNC(=O)[C@@H]2CCCN2C(=O)[C@H](NS(N)(=O)=O)C(c2ccccc2)c2ccccc2)cc1F` [Compound 15, N-aminosulfonyl-D-diphenylalanyl-L-prolyl-[(4-amidino-3-fluorophenyl)methyl]amide.TFA]: the Ki was 0.03 nM.

For the compound `N=C(N)c1ccc(CNC(=O)[C@@H]2CCCN2C(=O)[C@H](NS(N)(=O)=O)C(c2ccccc2)c2ccccc2)c(F)c1` [Compound 16, N-aminosulfonyl-D-diphenylalanyl-L-prolyl-[(4-amidino-2-fluorophenyl)methyl]amide.TFA], the inhibition constant (Ki) amounted to 0.016 nM.

Consider `Cc1cc(CNC(=O)[C@@H]2CCCN2C(=O)[C@H](NS(N)(=O)=O)C(c2ccccc2)c2ccccc2)ccc1C(=N)N` [Compound 17, N-aminosulfonyl-D-diphenylalanyl-L-prolyl-[(4-amidino-3-methylphenyl)methyl]amide.TFA], for which the Ki stood at 0.32 nM.

`N=C(N)c1ccc(CNC(=O)[C@@H]2CCCN2C(=O)[C@H](NS(N)(=O)=O)C(c2ccccc2)c2ccccc2)cc1N` [Compound 18, N-aminosulfonyl-D-diphenylalanyl-L-prolyl-[(4-amidino-3-aminophenyl)methyl]amide.TFA]: the inhibition constant Ki turned out to be 0.2 nM.

With `N=C(N)c1ccc(CNC(=O)[C@@H]2CCCN2C(=O)[C@@H](Cc2ccc(O)cc2)NS(N)(=O)=O)cc1` [Compound 20, N-aminosulfonyl-D-tyrosinyl-L-prolyl-[(4-amidinophenyl)methyl]amide.TFA], the Ki amounted to 0.39 nM.

In the case of `CC(C)(C)OC(=O)N[C@@H](C(=O)N1CCC[C@H]1C(=O)NCc1ccc(C(=N)N)cc1)C(c1ccccc1)c1ccccc1` [Compound 21, N-t-butoxycarbonyl-D-diphenylalanyl-L-prolyl-[(4-amidinophenyl)methyl]amide.TFA], the Ki was determined as 0.08 nM.

Regarding `COC(=O)N[C@@H](C(=O)N1CCC[C@H]1C(=O)NCc1ccc(C(=N)N)cc1)C(c1ccccc1)c1ccccc1` [Compound 22, N-methoxycarbonyl-D-diphenylalanyl-L-prolyl-[(4-amidinophenyl)methyl]amide.TFA], the inhibition constant Ki is 0.03 nM.

On to `CCCOC(=O)N[C@@H](C(=O)N1CCC[C@H]1C(=O)NCc1ccc(C(=N)N)cc1)C(c1ccccc1)c1ccccc1` [Compound 23, N-propyloxycarbonyl-D-diphenylalanyl-L-prolyl-[(4-amidinophenyl)methyl]amide.TFA], for which the inhibitory constant (Ki) came to 0.035 nM.

As to `N=C(N)c1ccc(CNC(=O)[C@@H]2CCCN2C(=O)[C@H](NC(=O)OCc2ccccc2)C(c2ccccc2)c2ccccc2)cc1` [Compound 24, N-benzyloxycarbonyl-D-diphenylalanyl-L-prolyl-[(4-amidinophenyl)methyl]amide.TFA], the Ki is 0.04 nM.

As to `COC(=O)N[C@H](Cc1ccc(Cl)c(Cl)c1)C(=O)N1CCC[C@H]1C(=O)NCc1ccc(C(=N)N)cc1` [Compound 26, N-methoxycarbonyl-D-3,4-dichlorophenylalanyl-L-prolyl-[(4-amidinophenyl)methyl]amide.TFA], the Ki was found to be 0.47 nM.

In the case of `COC(=O)N[C@@H](C(=O)N1CCC[C@H]1C(=O)NCc1ccc(C(=N)N)cc1)C(C1CCCCC1)C1CCCCC1` [Compound 27, N-methoxycarbonyl-D-dicyclohexylalanyl-L-prolyl-[(4-amidinophenyl)methyl]amide.TFA], the Ki worked out at 0.02 nM.

In general, Ki refers to a measure of affinity in units of concentration, obtained from inhibition or displacement.
